Earlier results in patent US5141290A, “Toothbrush” (Hamivreshet Brush Factory, priority 1990, dated 1992).

Test system: dental plaque

## [H]/N=C(\N/C(=N/[H])NCCCCCCNC(=N)NC(=N)Nc1ccc(Cl)cc1)Nc1ccc(Cl)cc1 [chlorhexidine]
Clinically tested, among chemical agents
  potential to inhibit the formation of plaque: has shown the greatest promise
In vivo
  plaque-reducing property: high plaque-reducing property
